# Test results taken from patent US7897582B2, “Oligonucleotide compositions and methods for the modulation of the expression of B7 protein” (Isis Pharmaceuticals, Inc., priority 2003, dated 2011).
# Strand notation (5' to 3'): a small letter for the sugar, then the base; units joined by * are phosphorothioate-linked, units joined directly phosphodiester-linked; [ ] holds rarer units or linkages, { } end groups; capitals alone tell only the bases. e = 2'-O-(2-methoxyethyl) (MOE); [5mC] = 5-methylcytosine; d = 2'-deoxy (DNA)
# Assays:
# [1] = tested on: hB7-2 mRNA; test: Ribonuclease protection assay of hB7-2 mRNA in transfected COS-7 cells; type: cell-based, human; conditions: human B7-2 mRNA; Table 12
# Description: For ribonuclease protection assays, cells were harvested 18 hours after completion of oligonucleotide treatment using a Totally RNA™ kit (Ambion, Austin, Tex.). The probes for the assay were generated from plasmids pcB7-2 (linearized by digestion with Bgl II) and pTRI-b-actin (Ambion Inc., Austin, Tex.). In vitro transcription of the linearized plasmid from the SP6 promoter was performed in the presence of α-^32P-UTP (800 Ci/mmole) yielding an antisense RNA complementary to the 3′ end of B7-2 (position 1044-1391). The probe was gel-purified after treatment with DNase I to remove DNA template. Ribonuclease protection assays were carried out using an RPA II™ kit (Ambion) according to the manufacturer's directions. Total RNA (5 μg) was hybridized overnight, at 42° C., with 10^5 cpm of the B7-2 probe or a control beta-actin probe. The hybridization reaction was then treated, at 37° C. for 30 minutes, with 0.4 units of RNase A and 2 units of RNase T1. Protected RNA was precipitated, resuspended in 10 μL of gel loading buffer and electrophoresed on a 6% acrylamide gel with 50% w/v urea at 20 W. The gel was then exposed and the lanes quantitated using a PhosphorImager (Molecular Dynamics, Sunnyvale, Calif.) essentially according to the manufacturer's instructions.
# The oligonucleotides were screened as described in Example 4 except that the concentration of oligonucleotide was varied as shown in Table 13. Mismatch control oligonucleotides were included.
# [2] = tested on: Human B7-1 mRNA; test: Human B7-1 mRNA expression in COS-7 cells, screened as in Example 4; type: cell-based
substance,measurement,setting,value
22299 (eG*eT*eG*eT*eA*dT*dA*dG*dA*dT*dG*dA*dG*d[5mC]*dA*eG*eG*eT*e[5mC]*eA; antisense) [compound 22299],% mRNA EXPRESSION,[1],46%
22291 (eT*eG*e[5mC]*e[5mC]*eT*dA*dA*dG*dT*dA*dT*dA*d[5mC]*d[5mC]*dT*e[5mC]*eA*eT*eT*e[5mC]; antisense) [compound 22291],% mRNA EXPRESSION,[1],41%
24734 (antisense e[5mC]*eG*eT*eT*eG*d[5mC]*dT*dT*dG*dT*dG*d[5mC]*d[5mC]*dG*dA*e[5mC]*eA*eG*eT*eG) [compound 24734],% mRNA EXPRESSION,"[2]; 10 nM, COS-7, Table 8",94%
same,% mRNA INHIBITION,"[2]; 10 nM, COS-7, Table 8",6%
same,% mRNA EXPRESSION,"[2]; 30 nM, COS-7, Table 8",96%
same,% mRNA INHIBITION,"[2]; 30 nM, COS-7, Table 8",4%
same,% mRNA EXPRESSION,"[2]; 100 nM, COS-7, Table 8",94%
same,% mRNA INHIBITION,"[2]; 100 nM, COS-7, Table 8",6%
same,% mRNA EXPRESSION,"[2]; 300 nM, COS-7, Table 8",84%
same,% mRNA INHIBITION,"[2]; 300 nM, COS-7, Table 8",16%
22301 (eA*eA*eG*eA*eT*dA*dA*dA*dA*dG*d[5mC]*d[5mC]*dG*d[5mC]*dG*eT*e[5mC]*eT*eT*eG; antisense) [compound 22301],% mRNA EXPRESSION,[1],51%
22288 (eT*e[5mC]*eA*eG*eA*dG*dG*dA*dG*d[5mC]*dA*dG*d[5mC]*dA*d[5mC]*e[5mC]*eA*eG*eA*eG; antisense) [compound 22288],% mRNA EXPRESSION,[1],38%
22330 (antisense e[5mC]*e[5mC]*eA*eA*e[5mC]*d[5mC]*dA*dG*dG*dA*dG*dA*dG*dG*dT*eG*eA*eG*eG*e[5mC]) [compound 22330],% mRNA EXPRESSION,"[2]; human B7-1 mRNA, Table 7",54%
same,% mRNA INHIBITION,"[2]; human B7-1 mRNA, Table 7",46%
22293 (e[5mC]*eA*eT*eA*eT*dA*d[5mC]*dT*dT*dG*dG*dA*dA*dT*dG*eA*eA*e[5mC]*eA*e[5mC]; antisense) [compound 22293],% mRNA EXPRESSION,[1],43%
22341 (antisense eA*eG*eA*eT*eA*dA*dT*dG*dA*dA*dT*dT*dG*dG*d[5mC]*eT*eG*eA*e[5mC]*eA) [compound 22341],% mRNA EXPRESSION,"[2]; human B7-1 mRNA, Table 7",59%
same,% mRNA INHIBITION,"[2]; human B7-1 mRNA, Table 7",41%
22307 (eG*eA*eA*eA*eT*d[5mC]*dA*dA*dA*dA*dA*dG*dG*dT*dT*eG*e[5mC]*e[5mC]*e[5mC]*eA; antisense) [compound 22307],% mRNA EXPRESSION,[1],45%
22298 (eT*e[5mC]*eA*eG*eG*dT*dT*dG*dA*d[5mC]*dT*dG*dA*dA*dG*eT*eT*eA*eG*e[5mC]; antisense) [compound 22298],% mRNA EXPRESSION,[1],53%
same,% mRNA INHIBITION,[1],47%
22309 (eT*eT*eG*eG*e[5mC]*dA*dT*dA*d[5mC]*dG*dG*dA*dG*d[5mC]*dA*eG*eA*eG*e[5mC]*eT; antisense) [compound 22309],% mRNA EXPRESSION,[1],42%
22285 (e[5mC]*eA*eG*eA*eA*dG*d[5mC]*dA*dA*dG*dG*dT*dG*dG*dT*eA*eA*eG*eA*eA; antisense) [compound 22285],% mRNA EXPRESSION,[1],74%
same,% mRNA INHIBITION,[1],26%
22297 (eT*eG*eT*eG*eA*dT*dG*dG*dA*dT*dG*dA*dT*dA*d[5mC]*eA*eT*eT*eG*eA; antisense) [compound 22297],% mRNA EXPRESSION,[1],54%
same,% mRNA INHIBITION,[1],46%
22312 (e[5mC]*e[5mC]*eT*eA*eA*dA*dT*dT*dT*dT*dA*dT*dT*dT*d[5mC]*e[5mC]*eA*eG*eG*eT; antisense) [compound 22312],% mRNA EXPRESSION,[1],83%
same,% mRNA INHIBITION,[1],17%
22286 (eG*e[5mC]*e[5mC]*eT*eG*dT*d[5mC]*d[5mC]*dA*d[5mC]*dT*dG*dT*dA*dG*e[5mC]*eT*e[5mC]*e[5mC]*eA; antisense) [compound 22286],% mRNA EXPRESSION,[1],39%
22311 (eG*eG*e[5mC]*eT*eT*dG*dG*d[5mC]*d[5mC]*d[5mC]*dA*dT*dA*dA*dG*eT*eG*eT*eG*e[5mC]; antisense) [compound 22311],% mRNA EXPRESSION,[1],49%
